Results: patent publication US12673946B2, “Pyrimidin-4(3H)-one derivatives as TRPV4 antagonists” (RaQualia Pharma Inc., priority 2020, dated 2026)
pIC50: −log10 of the molar value.

Biological target: T1, human TRPV4 (Homo sapiens, UniProt Q9HBA0)
T1 construct: host or cells: tetracycline-inducible Flp-In T-REx 293 cells
Experiment: Hypotonicity-induced Ca2+ influx (Fluo-4, FDSS)
Format: cell-based
Method in brief: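 Flp-In T-REx 293 cells with tetracycline-induced human TRPV4, loaded with Fluo-4 for 60 min at 25 °C. Compound added 5 min before hypotonic mannitol/CaCl2 solution. Ca2+ signal recorded for 4.5 min on FDSS.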

[1] = Flp-In T-REx 293 cells expressing human TRPV4, examples listed under heading 'Human IC50<50 nM'
[2] = Flp-In T-REx 293 cells stably expressing human TRPV4, compounds listed by potency bin (<10 nM Tables 96-1/96-2, <3 nM Table 97)

T1 sequence (Q9HBA0 whole entry): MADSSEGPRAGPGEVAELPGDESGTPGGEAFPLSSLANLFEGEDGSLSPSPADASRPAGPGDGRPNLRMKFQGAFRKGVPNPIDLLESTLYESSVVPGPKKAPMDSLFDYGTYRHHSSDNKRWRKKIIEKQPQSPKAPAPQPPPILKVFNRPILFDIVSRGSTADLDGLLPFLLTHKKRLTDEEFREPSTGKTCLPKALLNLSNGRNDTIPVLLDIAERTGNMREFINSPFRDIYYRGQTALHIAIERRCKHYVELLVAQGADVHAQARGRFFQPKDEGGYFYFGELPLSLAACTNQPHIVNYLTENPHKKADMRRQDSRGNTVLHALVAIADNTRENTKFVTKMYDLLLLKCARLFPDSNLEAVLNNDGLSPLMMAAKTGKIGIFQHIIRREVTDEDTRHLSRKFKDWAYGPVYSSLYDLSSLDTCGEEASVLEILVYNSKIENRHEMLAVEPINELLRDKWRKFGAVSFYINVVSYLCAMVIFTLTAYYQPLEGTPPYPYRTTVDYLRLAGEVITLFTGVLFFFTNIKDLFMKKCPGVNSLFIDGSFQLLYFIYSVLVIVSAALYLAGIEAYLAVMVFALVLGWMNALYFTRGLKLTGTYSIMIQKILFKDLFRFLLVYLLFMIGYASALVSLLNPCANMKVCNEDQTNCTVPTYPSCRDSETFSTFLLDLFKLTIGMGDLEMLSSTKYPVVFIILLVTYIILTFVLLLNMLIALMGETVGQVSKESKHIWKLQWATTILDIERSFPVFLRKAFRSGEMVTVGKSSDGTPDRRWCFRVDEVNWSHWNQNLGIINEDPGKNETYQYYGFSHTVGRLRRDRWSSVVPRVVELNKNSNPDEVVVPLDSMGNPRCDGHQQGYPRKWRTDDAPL

pIC50 [1]	pIC50 [2]	SMILES
> 7.30		N#Cc1ccc(-c2cccc(CC(=O)N3CCCc4nc(C5(c6ccccc6)CC5)[nH]c(=O)c4C3)c2)cc1 [17-131]
> 7.30	> 8.00	O=C([C@H](O)c1cccc(-c2cc(F)cc(Cl)c2)c1)N1CCCc2nc(C3(c4cccc(-c5csc6ccccc56)c4)CC3)[nH]c(=O)c2C1 [52-14]
> 7.30		O=C(C(O)c1cccc(SC(F)(F)F)c1)N1CCc2nc(C3(c4cccc(Cl)c4)CC3)[nH]c(=O)c2C1 (centres unmarked) [14-18]
> 7.30		O=C(Cc1cccc(-c2coc3ccccc23)c1)N1CCc2nc(C3(c4cccc(Cl)c4)CC3)[nH]c(=O)c2C1 [14-120]
> 7.30		CC(C)(C)c1cccc(C(O)C(=O)N2CCc3nc(C4(c5cccc(F)c5)CC4)[nH]c(=O)c3C2)c1 (centres unmarked) [14-22]
> 7.30	> 8.00	CC(C)c1cncc(C2(c3nc4c(c(=O)[nH]3)CN(C(=O)[C@H](O)c3cccc(C(F)(F)F)c3)CC4)CC2)c1 [28-3]
> 7.30	> 8.52	N#Cc1cc(-c2cccc(C3(c4nc5c(c(=O)[nH]4)CN(C(=O)[C@H](O)c4cccc(C(F)(F)F)c4)CCC5)CC3)c2)ccc1F [42-66]
> 7.30	> 8.52	O=C([C@H](O)c1cccc(Cl)c1)N1CCCc2nc(C3(c4cc(C5CCCCC5)cs4)CC3)[nH]c(=O)c2C1 [18-22]
> 7.30	> 8.00	O=C(C(O)c1cccc(C(F)(F)F)c1F)N1CCc2nc(C3(c4cncc(-c5ccccc5)c4)CC3)[nH]c(=O)c2C1 (centres unmarked) [16-2]
> 7.30	> 8.00	O=C([C@H](O)c1cccc(C(F)(F)F)c1)N1CCCc2nc(C3(c4cccs4)CC3)[nH]c(=O)c2C1 [18-9]
> 7.30	> 8.00	O=C(Cc1ccccc1)N1CCC(c2cccc(C3(c4nc5c(c(=O)[nH]4)CN(C(=O)[C@H](O)c4cccc(C(F)(F)F)c4)CCC5)CC3)c2)CC1 [31-9]
> 7.30	> 8.52	Cn1c(=O)oc2cc(-c3cccc(C4(c5nc6c(c(=O)[nH]5)CN(C(=O)[C@H](O)c5cccc(C(F)(F)F)c5)CCC6)CC4)c3)ccc21 [42-14]
> 7.30	> 8.00	O=C([C@H](O)c1cccc(Cl)c1)N1CCc2nc(C3(c4cccc(C5CCCC5)c4)CC3)[nH]c(=O)c2C1 [24-1]
> 7.30	> 8.00	CC(C)c1cncc(C2(c3nc4c(c(=O)[nH]3)CN(C(=O)[C@H](O)c3cccc(-c5ccc(OC(F)(F)F)cc5)c3)CC4)CC2)c1 [47-6]
> 7.30	> 8.00	O=C(C(O)c1cccc(-c2ccnc(C(F)(F)F)c2)c1)N1CCc2nc(C3(c4ccccc4)CC3)[nH]c(=O)c2C1 (centres unmarked) [44-17]
> 7.30	> 8.00	Cn1nccc1-c1cccc(C2(c3nc4c(c(=O)[nH]3)CN(C(=O)[C@H](O)c3cccc(C(F)(F)F)c3)CCC4)CC2)c1 [42-26]
> 7.30	> 8.52	O=C([C@H](O)c1cccc(-c2ccc(Cl)c(Cl)c2)c1)N1CCCc2nc(C3(c4ccccc4)CC3)[nH]c(=O)c2C1 [49-40]
> 7.30	> 8.00	O=C([C@H](O)c1cccc(C(F)(F)F)c1)N1CCCc2nc(C3(c4cccc(-c5cc6ccccc6s5)c4)CC3)[nH]c(=O)c2C1 [42-29]
> 7.30	> 8.00	CC(C)N(C(=O)c1csc(C2(c3nc4c(c(=O)[nH]3)CN(C(=O)[C@H](O)c3cccc(C(F)(F)F)c3)CCC4)CC2)c1)C(C)C [59-14, (R)-5-(1-(6-(2-hydroxy-2-(3-(trifluoromethyl)phenyl)acetyl)-4-oxo-4,5,6,7,8,9-hexahydro-3H-pyrimido[5,4-c]azepin-2-yl)cyclopropyl)-N,N-diisopropylthiophene-3-carboxamide]

pIC50 [1]	pIC50 [2]	SMILES
> 7.30		O=C(C(O)c1cccc(Cl)c1F)N1CCCc2nc(C3(c4ccccc4)CC3)[nH]c(=O)c2C1 (centres unmarked) [17-42]
> 7.30	> 8.00	O=C(C(O)c1cccc(-c2ccc(Cl)cc2)c1)N1CCCc2nc(C3(c4ccccc4)CC3)[nH]c(=O)c2C1 (centres unmarked) [49-3]
> 7.30		N#Cc1cc(Cl)cc(-c2cccc(CC(=O)N3CCc4nc(C5(c6cccc(Cl)c6)CC5)[nH]c(=O)c4C3)c2)c1 [14-121]
> 7.30	> 8.52	O=C([C@H](O)c1cccc(-c2ccc3c(c2)OC(F)(F)O3)c1)N1CCc2nc(C3(c4ccccc4)CC3)[nH]c(=O)c2C1 [44-85]
> 7.30	> 8.52	O=C([C@H](O)c1cccc(C(F)(F)F)c1)N1CCc2nc(C3(c4cncc(-c5ccccc5)c4)CC3)[nH]c(=O)c2C1 [38-1]
> 7.30	> 8.00	CC(C)(C)c1cccc(C(O)C(=O)N2CCc3nc(C4(c5cccc(Cl)c5)CC4)[nH]c(=O)c3C2)c1 (centres unmarked) [14-11]
> 7.30		O=C(C(O)c1cccc(-c2ccc(F)cc2)c1)N1CCc2nc(C3(c4ccccc4)CC3)[nH]c(=O)c2C1 (centres unmarked) [44-50]
> 7.30	> 8.00	O=C([C@H](O)c1cccc(-c2cccc(Cl)c2)c1)N1CCc2nc(C3(c4cccc(Cl)c4)CC3)[nH]c(=O)c2C1 [45-8]
> 7.30	> 8.00	O=C([C@H](O)c1cccc(C(F)(F)F)c1)N1CCCc2nc(C3(c4cccc(-c5ccc(F)cc5)c4)CC3)[nH]c(=O)c2C1 [42-59]
> 7.30	> 8.00	O=C(C(O)c1cccc(-c2cccc(F)c2)c1)N1CCCc2nc(C3(c4ccccc4)CC3)[nH]c(=O)c2C1 (centres unmarked) [49-9]
> 7.30	> 8.00	CC(C)c1cccc(C2(c3nc4c(c(=O)[nH]3)CN(C(=O)[C@H](O)c3cccc(Cl)c3)CCC4)CC2)c1 [29-1]
> 7.30	> 8.00	CC(C)(C)c1ccc(-c2cccc([C@@H](O)C(=O)N3CCCc4nc(C5(c6cccc(Cl)c6)CC5)[nH]c(=O)c4C3)c2)cc1 [50-22]
> 7.30	> 8.00	CC(C)(C)c1cccc(-c2cccc([C@@H](O)C(=O)N3CCCc4nc(C5(c6cccc(C7CCCCC7)c6)CC5)[nH]c(=O)c4C3)c2)c1 [52-5]
> 7.30	> 8.00	O=C([C@H](O)c1cccc(C(F)(F)F)c1)N1CCCc2nc(C3(c4cccc(-c5ccc(C6(O)CCOCC6)cc5)c4)CC3)[nH]c(=O)c2C1 [42-22]
> 7.30	> 8.52	O=C(N1CCCc2nc(C3(c4cccs4)CC3)[nH]c(=O)c2C1)C(F)(F)c1cccc(C(F)(F)F)c1 [21-1]
> 7.30	> 8.00	O=C(Cc1cccc(-c2cccc(Cl)c2)c1)N1CCCc2nc(C3(c4cc(-c5ccccc5)cs4)CC3)[nH]c(=O)c2C1 [18-27]
> 7.30	> 8.00	O=C([C@H](O)c1cccc(-c2cc(Cl)cc(OC(F)(F)F)c2)c1)N1CCc2nc(C3(c4cccc(Cl)c4)CC3)[nH]c(=O)c2C1 [45-11]
> 7.30		O=C([C@H](O)c1cccc(Cl)c1)N1CCc2nc(C3(c4ccc(F)cc4)CC3)[nH]c(=O)c2C1 [3-22]
> 7.30		O=C(C(O)c1ccccc1C(F)(F)F)N1CCCc2nc(C3(c4cccc(Cl)c4)CC3)[nH]c(=O)c2C1 (centres unmarked) [17-43]

pIC50 [1]	pIC50 [2]	SMILES
> 7.30	> 8.00	O=C([C@H](O)c1cccc(-c2ccc(F)c(Cl)c2)c1)N1CCCc2nc(C3(c4cccc(Cl)c4)CC3)[nH]c(=O)c2C1 [50-21]
> 7.30	> 8.00	CC(C)c1cccc(C2(c3nc4c(c(=O)[nH]3)CN(C(=O)C(O)c3cccc(S(F)(F)(F)(F)F)c3)CCC4)CC2)c1 (centres unmarked) [17-39]
> 7.30	> 8.52	O=C([C@H](O)c1cccc(-c2cccc(C(F)(F)F)c2)c1)N1CCCc2nc(C3(c4ccccc4)CC3)[nH]c(=O)c2C1 [49-13]
> 7.30	> 8.00	O=C(C(O)c1cccc(-c2cccc(C(F)(F)F)c2)c1)N1CCCc2nc(C3(c4cccc(Cl)c4)CC3)[nH]c(=O)c2C1 (centres unmarked) [17-16]
> 7.30	> 8.00	O=C([C@H](O)c1cccc(C(F)(F)F)c1)N1CCCc2nc(C3(c4cccc(C5CCCCC5)c4)CC3)[nH]c(=O)c2C1 [17-25]
> 7.30		O=C(NCc1ccccc1)c1csc(C2(c3nc4c(c(=O)[nH]3)CN(C(=O)[C@H](O)c3cccc(C(F)(F)F)c3)CCC4)CC2)c1 [59-6]
> 7.30	> 8.52	O=C([C@H](O)c1cccc(C(F)(F)F)c1)N1CCCc2nc(C3(c4cccc(-c5ccc(OCc6ccccn6)cc5)c4)CC3)[nH]c(=O)c2C1 [42-43]
> 7.30		O=C(COc1cccc(C(F)(F)F)c1)N1CCCc2nc(C3(c4cccc(Cl)c4)CC3)[nH]c(=O)c2C1 [17-147]
> 7.30	> 8.00	O=C(Cc1cccc(-c2ccccc2)c1)N1CCCc2nc(C3(c4cccc(Cl)c4)CC3)[nH]c(=O)c2C1 [17-84]
> 7.30	> 8.00	CC(C)Oc1cccc(-c2cccc([C@@H](O)C(=O)N3CCCc4nc(C5(c6cccc(Cl)c6)CC5)[nH]c(=O)c4C3)c2)c1 [50-13]
> 7.30	> 8.00	O=C([C@H](O)c1cccc(Cl)c1)N1CCc2nc(C3(c4cccc(Oc5ccccc5)c4)CC3)[nH]c(=O)c2C1 [14-4]
> 7.30	> 8.52	CC(C)c1cccc(C2(c3nc4c(c(=O)[nH]3)CN(C(=O)C(O)c3cccc(C(C)(C)C)c3)CCC4)CC2)c1 (centres unmarked) [17-8]
> 7.30	> 8.00	O=C([C@H](O)c1cccc(C(F)(F)F)c1)N1CCc2nc(C3(c4cc(C5CCC(F)(F)CC5)cs4)CC3)[nH]c(=O)c2C1 [26-1]
> 7.30		O=C(C(O)c1ccnc(N2CCCCCC2)c1)N1CCc2nc(C3(c4ccccc4)CC3)[nH]c(=O)c2C1 (centres unmarked) [11-3]
> 7.30	> 8.00	O=C([C@H](O)c1cccc(Cl)c1)N1CCCc2nc(C3(c4cc(-c5cnsc5)cs4)CC3)[nH]c(=O)c2C1 [39-2]
> 7.30		O=C(C(O)c1cc(Cl)cc(Cl)c1)N1CCc2nc(C3(c4ccccc4)CC3)[nH]c(=O)c2C1 (centres unmarked) [3-62]
> 7.30	> 8.00	O=C(Cc1cccc(C(F)(F)F)c1F)N1CCCc2nc(C3(c4ccccc4)CC3)[nH]c(=O)c2C1 [17-11]
> 7.30		O=C(C(F)c1ccccc1)N1CCc2nc(C3(c4ccccc4)CC3)[nH]c(=O)c2C1 (centres unmarked) [2-21]
